Like-named read-outs stand apart in the source and are kept apart here.
How the values were obtained:
insulin = test: Potentiation of the hypoglycemic activity of insulin (test of Macallum et al.); type: in vivo, rabbit; conditions: for potentiation of the hypoglycemic activity of insulin, intravenous / potentiation of the hypoglycemic activity of insulin, oral: intravenous; for potentiation of the hypoglycemic activity of insulin, oral: non-convulsant dose of insulin; for oral activity after the metabolic and neurologic tests: summary of insulin potentiation and kainic acid tests
Method: (§1) By way of example, the compounds are tested, on one hand by the test of Macallum et al., Can.

[1] = Antagonism of neurotoxic/convulsant activity of kainic acid, wet dog shaking (test of Fariello et al.); type: in vivo, rat; conditions: per os
Method: as §1

[2] = kainic acid administered systemically to the rat; Fariello et al. 1980; cited from earlier work
[3] = tested on: Sprague-Dawley I.O.P.S. rat; test: Acute toxicity LD50 oral vs i.p. and B/P ratio, rat; type: in vivo
From the text: It has been determined that this discovery is not appropriate to a particular animal, by making the same observation for the Sprague-Dawley I.O.P.S. rat where the B/P ratio for magnesium chloride is greater than […]. For the respective compounds of Examples 13 and 14, the ratio is reduced in a most significant manner (p<0.001), to 3.3/2.2=1.5 and […].

Swiss I.O.P.S. mice = test: in vivo; conditions: Swiss I.O.P.S. mouse
Method: The study is carried out with Swiss I.O.P.S. mice, in lots of 20 animals of both sexes.

[4] = Test of Frances et al. (ED50 rolling, trembling)

NCCCS(=O)(=O)O [homotaurine, 3-aminopropanesulfonic acid]
potentiation of the hypoglycemic activity of insulin, intravenous (insulin): active intravenously
potentiation of the hypoglycemic activity of insulin, oral (insulin): not orally active
oral activity after the metabolic and neurologic tests (insulin): inactive
reduction of the neurotoxic effect of kainic acid (wet dog shaking) [1]: no significant reduction
antagonism of neurotoxic or convulsant activity of kainic acid [2]: antagonises the neurotoxic or convulsant activity of kainic acid

[Cl-].[Cl-].[Mg+2] [magnesium chloride, reference compound]
B/P ratio (oral LD50 / i.p. LD50) [3]: > 8.99
LD50 by gastric tubage (B) ([3]; oral): greater than 39.3 mmol/kg
B/P ratio (oral LD50 / i.p. LD50) (Swiss I.O.P.S. mice): 2.04
LD50 by gastric tubage (B) (Swiss I.O.P.S. mice; oral): 19.2 mmol/kg

NCCS(=O)(=O)O [Taurine, 2-aminoethanesulfonic acid]
ED50 ([4]; read-out: ED50 rolling): 4670 µmol/kg
ED50 ([4]; read-out: ED50 trembling): 4340 µmol/kg
potentiation of the hypoglycemic activity of insulin, intravenous (insulin): active intravenously
potentiation of the hypoglycemic activity of insulin, oral (insulin): not orally active
oral activity after the metabolic and neurologic tests (insulin): inactive
reduction of the neurotoxic effect of kainic acid (wet dog shaking) [1]: no significant reduction
